Results published in the NIST ThermoML archive (doi:10.1016/j.jct.2004.10.011).
Numbers after ± are expanded uncertainties.

Assay: xn = mol fraction of the nth substance listed
Settings: 328.15 K, Liquid, Vibrating tube method

CCC(=O)c1ccccc1 [ethyl phenyl ketone] + Cc1ccccc1
mass density [kg/m3]
Settings | x2 = 0 | x2 = 0.1048 | x2 = 0.2025 | x2 = 0.3006 | x2 = 0.3991 | x2 = 0.4998 | x2 = 0.6004 | x2 = 0.7036 | x2 = 0.8028 | x2 = 0.902
100 kPa | 979.6 ± 0.56 | 967.8 ± 0.51 | 956.5 ± 0.47 | 944.4 ± 0.43 | 931.4 ± 0.4 | 917.54 ± 0.37 | 902.56 ± 0.34 | 886.7 ± 0.33 | 870.2 ± 0.31 | 852.8 ± 0.31
2130 kPa | 981.1 ± 0.55 | 969.1 ± 0.51 | 957.8 ± 0.47 | 945.7 ± 0.43 | 932.8 ± 0.39 | 918.96 ± 0.36 | 904.06 ± 0.33 | 888.3 ± 0.31 | 871.8 ± 0.3 | 854.5 ± 0.29
4150 kPa | 982.4 ± 0.55 | 970.5 ± 0.51 | 959.2 ± 0.47 | 947.1 ± 0.43 | 934.3 ± 0.39 | 920.45 ± 0.36 | 905.6 ± 0.34 | 889.9 ± 0.32 | 873.5 ± 0.3 | 856.2 ± 0.29
6180 kPa | 983.7 ± 0.55 | 971.8 ± 0.51 | 960.5 ± 0.47 | 948.5 ± 0.43 | 935.7 ± 0.39 | 921.95 ± 0.36 | 907.14 ± 0.34 | 891.5 ± 0.31 | 875.1 ± 0.3 | 857.9 ± 0.3
8210 kPa | 985 ± 0.55 | 973.1 ± 0.51 | 961.8 ± 0.47 | 949.9 ± 0.43 | 937.1 ± 0.39 | 923.37 ± 0.36 | 908.63 ± 0.34 | 893 ± 0.31 | 876.7 ± 0.3 | 859.6 ± 0.3
10230 kPa | 986.2 ± 0.55 | 974.5 ± 0.51 | 963.2 ± 0.47 | 951.2 ± 0.43 | 938.5 ± 0.39 | 924.82 ± 0.36 | 910.11 ± 0.34 | 894.5 ± 0.31 | 878.3 ± 0.3 | 861.2 ± 0.29
11250 kPa | 986.9 ± 0.55 | 975.1 ± 0.51 | 963.8 ± 0.47 | 951.9 ± 0.43 | 939.2 ± 0.4 | 925.52 ± 0.36 | 910.85 ± 0.34 | 895.3 ± 0.32 | 879 ± 0.3 | 862 ± 0.3
12260 kPa | 987.5 ± 0.55 | 975.7 ± 0.51 | 964.5 ± 0.47 | 952.5 ± 0.43 | 939.9 ± 0.4 | 926.2 ± 0.37 | 911.57 ± 0.34 | 896 ± 0.32 | 879.8 ± 0.31 | 862.8 ± 0.31
14290 kPa | 988.7 ± 0.55 | 977 ± 0.51 | 965.8 ± 0.47 | 953.9 ± 0.43 | 941.2 ± 0.4 | 927.61 ± 0.37 | 913.02 ± 0.34 | 897.5 ± 0.32 | 881.4 ± 0.31 | 864.5 ± 0.31
16310 kPa | 990 ± 0.55 | 978.3 ± 0.51 | 967.1 ± 0.47 | 955.2 ± 0.43 | 942.6 ± 0.4 | 928.98 ± 0.37 | 914.44 ± 0.34 | 898.9 ± 0.32 | 882.9 ± 0.31 | 866 ± 0.31
18340 kPa | 991.2 ± 0.55 | 979.5 ± 0.51 | 968.3 ± 0.47 | 956.5 ± 0.43 | 943.9 ± 0.4 | 930.34 ± 0.37 | 915.83 ± 0.34 | 900.4 ± 0.32 | 884.4 ± 0.31 | 867.6 ± 0.31
20370 kPa | 992.3 ± 0.55 | 980.8 ± 0.51 | 969.6 ± 0.47 | 957.7 ± 0.43 | 945.2 ± 0.4 | 931.69 ± 0.37 | 917.22 ± 0.34 | 901.8 ± 0.32 | 885.8 ± 0.31 | 869.1 ± 0.31
22390 kPa | 993.5 ± 0.55 | 982 ± 0.51 | 970.8 ± 0.47 | 959 ± 0.43 | 946.5 ± 0.4 | 933.04 ± 0.37 | 918.61 ± 0.34 | 903.2 ± 0.33 | 887.3 ± 0.32 | 870.6 ± 0.31
24420 kPa | 994.7 ± 0.55 | 983.2 ± 0.51 | 972 ± 0.47 | 960.2 ± 0.43 | 947.7 ± 0.4 | 934.34 ± 0.37 | 919.95 ± 0.34 | 904.6 ± 0.33 | 888.7 ± 0.32 | 872 ± 0.32
26450 kPa | 995.9 ± 0.56 | 984.4 ± 0.51 | 973.2 ± 0.47 | 961.5 ± 0.43 | 949 ± 0.4 | 935.61 ± 0.37 | 921.26 ± 0.35 | 905.9 ± 0.33 | 890.1 ± 0.32 | 873.5 ± 0.32
28470 kPa | 997.1 ± 0.55 | 985.6 ± 0.51 | 974.5 ± 0.47 | 962.7 ± 0.43 | 950.2 ± 0.4 | 936.91 ± 0.37 | 922.59 ± 0.35 | 907.2 ± 0.33 | 891.5 ± 0.32 | 874.9 ± 0.33
29490 kPa | 997.6 ± 0.55 | 986.2 ± 0.51 | 975 ± 0.47 | 963.3 ± 0.43 | 950.8 ± 0.4 | 937.56 ± 0.37 | 923.26 ± 0.35 | 908 ± 0.33 | 892.2 ± 0.33 | 875.7 ± 0.33
30500 kPa | 998.2 ± 0.55 | 986.7 ± 0.51 | 975.6 ± 0.47 | 963.9 ± 0.43 | 951.5 ± 0.4 | 938.18 ± 0.37 | 923.89 ± 0.35 | 908.6 ± 0.33 | 892.9 ± 0.33 | 876.4 ± 0.33
32530 kPa | 999.3 ± 0.55 | 987.9 ± 0.51 | 976.8 ± 0.47 | 965.1 ± 0.43 | 952.7 ± 0.4 | 939.41 ± 0.37 | 925.17 ± 0.35 | 909.9 ± 0.33 | 894.2 ± 0.33 | 877.7 ± 0.33
34550 kPa | 1000.4 ± 0.56 | 989 ± 0.51 | 978 ± 0.47 | 966.2 ± 0.43 | 953.9 ± 0.4 | 940.65 ± 0.37 | 926.43 ± 0.35 | 911.2 ± 0.34 | 895.6 ± 0.33 | 879.1 ± 0.34
36580 kPa | 1001.5 ± 0.56 | 990.2 ± 0.51 | 979.1 ± 0.47 | 967.4 ± 0.43 | 955.1 ± 0.4 | 941.85 ± 0.37 | 927.68 ± 0.35 | 912.5 ± 0.34 | 896.9 ± 0.33 | 880.4 ± 0.34
38600 kPa | 1002.6 ± 0.56 | 991.3 ± 0.51 | 980.3 ± 0.47 | 968.6 ± 0.43 | 956.2 ± 0.4 | 943.07 ± 0.37 | 928.95 ± 0.35 | 913.7 ± 0.34 | 898.2 ± 0.33 | 881.8 ± 0.34
39620 kPa | 1003.2 ± 0.56 | 991.9 ± 0.5 | 980.8 ± 0.46 | 969.1 ± 0.42 | 956.9 ± 0.39 | 943.64 ± 0.36 | 929.53 ± 0.34 | 914.4 ± 0.32 | 898.8 ± 0.32 | 882.4 ± 0.33
